The subject of one series is HMEC-1 cells. In words: Tube formation on Matrigel (antiangiogenic activity). The class given is cell-based. The note with it: 100 μM, 24 h. The protocol:
Then we went on to study the effect of these selected compounds on the formation of new capillary networks. Again, HMEC-1 cells were seeded on Matrigel and treated with compounds 21, 22, and 23 at 100 μM. After 24 h of the corresponding treatments, we compared the cultures with non-treated cells, and the results are depicted in Figure 5d–f.
Wells of a IBIDI 15-well μ-plate for angiogenesis were coated with 15 μL of Matrigel® (10 mg/mL, BD Biosciences Europe) at 4 °C. After gelatinization at 37 °C for 30 min, HMEC-1 cells were seeded at 2 × 10^4 cells/well in 25 μL of culture medium on top of the Matrigel and were incubated for 30 min at 37 °C while they were attached.
For the tube-formation assay (study of antiangiogenic activity), 100 μM of compounds was added 20 min after seeding HMEC-1 on Matrigel.

Series [1] deals with A-549 (lung adenocarcinoma). The series can be described thus: MTT cell viability assay, A-549. The note with it: Homo sapiens, A549, 48 h, 2 days incubation, average ±SD of three experiments. The class given is cell-based. Put shortly:
(§1)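 Cells seeded at 3 × 10^3 (A549, HEK-293) or 5 × 10^3 (HT-29, MCF-7) per well and exposed to serial compound dilutions for 2 days at 37 °C, 5% CO2. MTT added for 3 h, formazan dissolved in DMSO, absorbance at 550 nm; viability relative to untreated cells, IC50 from three independent experiments.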
(Tetrazolium assays rely on reduction of a dye to a coloured formazan, in cell work by metabolically active cells.)

The target of another series is T1, total PD-L1 (tPD-L1) (Homo sapiens, UniProt Q9NZQ7).
T1 construct: endogenous in cells; host or cells: HT-29, A-549, MCF-7
T1 sequence (Q9NZQ7 19-290): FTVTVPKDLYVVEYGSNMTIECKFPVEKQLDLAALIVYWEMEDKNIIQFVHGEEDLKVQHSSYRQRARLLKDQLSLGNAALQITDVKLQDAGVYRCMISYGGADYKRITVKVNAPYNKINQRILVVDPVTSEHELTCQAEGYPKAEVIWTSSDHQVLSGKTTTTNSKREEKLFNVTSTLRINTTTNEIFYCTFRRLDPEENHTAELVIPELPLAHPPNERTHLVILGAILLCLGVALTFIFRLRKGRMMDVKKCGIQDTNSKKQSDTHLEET
In words: Total PD-L1 relative quantification by flow cytometry. The class given is cell-based. The note with it: for tPD-L1 relative detection, A-549 / tPD-L1 relative detection, HT-29 / tPD-L1 relative detection, MCF-7: 24 h, 100 or 10 μM (Table 7), relative to DMSO control. Background: Flow cytometry measures light scatter and fluorescence of single cells or particles in a stream.

Series [2] concerns HT-29 (colon adenocarcinoma). In words: MTT cell viability assay, HT-29. The class given is cell-based. The note with it: Homo sapiens, HT-29, 48 h, 2 days incubation, average ±SD of three experiments. The procedure, abridged: as §1
The next series has as its system c-Myc. The series can be described thus: c-Myc relative quantification by flow cytometry. The following applies: for c-Myc relative detection, A-549 / c-Myc relative detection, HT-29 / c-Myc relative detection, MCF-7: 24 h, 100 or 10 μM (Table 7), relative to DMSO control. The series is classed as cell-based, human.
The subject of series [3] is MCF-7 (breast adenocarcinoma). In words: MTT cell viability assay, MCF-7. The note with it: Homo sapiens, MCF7, 48 h, 2 days incubation, average ±SD of three experiments. The class given is cell-based. Put shortly: as §1
The next series deals with T2, membrane PD-L1 (mPD-L1) (Homo sapiens, UniProt Q9NZQ7).
T2 construct: endogenous in cells; host or cells: HT-29, A-549, MCF-7
T2 sequence (Q9NZQ7 19-290): as above
The series can be described thus: Membrane PD-L1 relative quantification by flow cytometry. The class given is cell-based. The note with it: for mPD-L1 relative detection, A-549 / mPD-L1 relative detection, MCF-7 / mPD-L1 relative detection, HT-29: 24 h, 100 or 10 μM (Table 7), percentage referred to DMSO control.

Another series concerns the target T3, PD-L1 (Homo sapiens, UniProt Q9NZQ7).
T3 construct: purchased ab167713
The series can be described thus: Protein thermal shift (PTS) assay. The class given is binding. The following applies: for PTS Tm: PD-L1 melting temperature, DMSO 34 °C; for PTS ΔTm: shift of PD-L1 melting temperature vs DMSO. An excerpt: This assay measures the melting point (Tm) of the target protein which is a proxy of its stability that can be altered by the binding of a ligand. A change in the melting point relative to the unliganded form implies that a ligand has bound itself to the targeted protein. According to the fundamentals of this technique, an increase in Tm means that the binding of the ligand leads to a stabilization of the target protein, while a decrease in Tm is probably due to the fact that the binding between the ligand and its target leads to a destabilization of the protein. In this case, the tested compounds were able to change the PD-L1 melting temperature.
PTS assay was performed by following the instructions indicated in Protein Thermal ShiftTM Dye Kit (Applied Biosystems reference 4461146), using 2 μL of a 0.1 mg/mL of an aqueous solution of PD-L1 (reference ab167713) and 1.5 μL of a 0.1 mg/mL aqueous solution of the corresponding product. The melting curves were registered by a StepOneTM Real-Time PCR System.

[4] abbreviates: HT-29, compared to non-treated cells.

T3 sequence (Q9NZQ7 19-290): as above

Broadly, the melting point is the temperature of the solid-liquid transition. The term IC50 denotes the concentration that gives 50% inhibition. Low readings indicate inhibition by little substance, high ones a need for much substance. Turning to `Nc1ccc(-c2cn(Cc3ccccc3Cl)nn2)cc1` [Compound 21, 4-(1-(2-chlorobenzyl)-1H-1,2,3-triazol-4-yl)aniline], the melting point is 112 to 115 °C. Also, in the series on HMEC-1 cells, the “Antiangiogenic effect on formation of new HMEC-1 capillary networks” value (shortened to “Antiangiogenic effect on formation”) was “interfered with the formation of new microvessel networks”. The IC50 in [1] is above 100 µM. For the same molecule, on total PD-L1 (tPD-L1), the “tPD-L1 relative detection, A-549” value is 78 ± 9%; the “tPD-L1 relative detection, HT-29” value came out at 60 ± 6%; the “tPD-L1 relative detection, MCF-7” value is above 100%. The half-maximal inhibitory concentration (IC50) in [2] is above 100 µM. Further, in the series with c-Myc, the “c-Myc relative detection, A-549” value is reported as above 100% and the “c-Myc relative detection, MCF-7” value was found to be 59 ± 6%. Moreover, the “c-Myc relative detection, HT-29” value with c-Myc (HT-29) is given as above 100%. In series [3], this molecule returned a 50% inhibitory concentration (IC50) of 11 ± 2 µM. At membrane PD-L1 (mPD-L1), the “mPD-L1 relative detection, A-549” value is reported as 95 ± 5% and the “mPD-L1 relative detection, MCF-7” value was determined as 83 ± 7%. For the same molecule, on PD-L1, the “PTS Tm” value was determined as 30 °C and the “PTS ΔTm” value is −4 °C.
Molecule `Nc1ccc(-c2cn(Cc3cccc(Cl)c3)nn2)cc1` [Compound 22, 4-(1-(3-chlorobenzyl)-1H-1,2,3-triazol-4-yl)aniline] came in with a melting point of 143 to 144 °C. Also, in the series on HMEC-1 cells, the “Antiangiogenic effect on formation” value is “interfered with the formation of new microvessel networks”. Moreover, the IC50 in series [1] was above 100 µM. Further, at total PD-L1 (tPD-L1), the “tPD-L1 relative detection, A-549” value was found to be 75 ± 10%; the “tPD-L1 relative detection, HT-29” value came to 52 ± 7%; the “Inhibition of total PD-L1, MCF-7” value is reported as “around 40%”; the “tPD-L1 relative detection, MCF-7” value was determined as 69 ± 7%. The same molecule returned an IC50 in series [2] above 100 µM. For the same molecule, in the series on c-Myc, the “c-Myc relative detection, A-549” value is given as above 100% and the “c-Myc relative detection, MCF-7” value is on record as 59 ± 5%. Further, the “c-Myc relative detection, HT-29” value in the series on c-Myc (HT-29) was above 100%. In series [3], this molecule came in with an IC50 of 8 ± 2 µM. Further, at membrane PD-L1 (mPD-L1), the “mPD-L1 relative detection, A-549” value was found to be 82 ± 18% and the “mPD-L1 relative detection, MCF-7” value is on record as 90 ± 2%. The “mPD-L1 relative detection, HT-29” value on membrane PD-L1 (mPD-L1) (HT-29) was 27 ± 5%. In addition, on PD-L1, the “PTS Tm” value is 26 °C and the “PTS ΔTm” value was −8 °C.
As for `Nc1ccc(-c2cn(Cc3ccc(Cl)cc3)nn2)cc1` [Compound 23, 4-(1-(4-chlorobenzyl)-1H-1,2,3-triazol-4-yl)aniline], the melting point was 164 to 166 °C. Besides, the “Antiangiogenic effect on formation” value with HMEC-1 cells was “interfered with the formation of new microvessel networks”. In addition, the IC50 in [1] is above 100 µM. Besides, on total PD-L1 (tPD-L1), the “tPD-L1 relative detection, A-549” value stood at 81 ± 15%; the “tPD-L1 relative detection, HT-29” value was 52 ± 3%; the “Inhibition of total PD-L1, MCF-7” value was “around 40%”; the “tPD-L1 relative detection, MCF-7” value is reported as 61 ± 14%. Besides, the 50% inhibitory concentration (IC50) in series [2] was above 100 µM. In the series on c-Myc, the “c-Myc relative detection, A-549” value was above 100% and the “c-Myc relative detection, MCF-7” value came to 51 ± 8%. For the same molecule, the “c-Myc relative detection, HT-29” value with c-Myc (HT-29) is 84 ± 5%. In addition, in the series on c-Myc (setting [4]), the “Inhibition of c-Myc, HT-29” value was 20%. Further, the IC50 in series [3] worked out at 9 ± 6 µM. Besides, at membrane PD-L1 (mPD-L1), the “mPD-L1 relative detection, A-549” value is given as above 100% and the “mPD-L1 relative detection, MCF-7” value is on record as 86 ± 3%. In addition, the “mPD-L1 relative detection, HT-29” value at membrane PD-L1 (mPD-L1) (HT-29) came out at 38 ± 5%. Moreover, the “Reduction/inhibition of membrane PD-L1, HT-29” value at membrane PD-L1 (mPD-L1) (setting [4]) is listed as “around 70%”. At PD-L1, the “PTS Tm” value turned out to be 29 °C and the “PTS ΔTm” value is −5 °C.

The values are drawn from publication PMC9266368, “Synthesis and Biological Evaluation of Small Molecules as Potential Anticancer Multitarget Agents” (International Journal of Molecular Sciences, 2022).
